Key:
Bcl-2 = Bcl-2 (Homo sapiens, UniProt P10415); test: Bcl-2 binding affinity analysis (fluorescence polarization binding assay); settings: read-out: BcI2 (Ki, Bcl-2 binding affinity)
Bcl-xL = Bcl-xL (Homo sapiens, UniProt Q07817); test: Bcl-xL binding affinity analysis (fluorescence polarization binding assay); settings: read-out: BcI-XI (Ki, Bcl-xL binding affinity)
Bcl-xL, sequence (Q07817 whole entry): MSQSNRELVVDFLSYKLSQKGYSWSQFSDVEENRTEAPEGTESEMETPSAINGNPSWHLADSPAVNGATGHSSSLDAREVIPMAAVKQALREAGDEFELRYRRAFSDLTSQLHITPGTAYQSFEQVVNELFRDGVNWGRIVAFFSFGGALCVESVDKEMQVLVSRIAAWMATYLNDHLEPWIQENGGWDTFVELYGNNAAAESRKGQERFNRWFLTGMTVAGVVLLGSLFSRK

Bcl-2, sequence (P10415 whole entry): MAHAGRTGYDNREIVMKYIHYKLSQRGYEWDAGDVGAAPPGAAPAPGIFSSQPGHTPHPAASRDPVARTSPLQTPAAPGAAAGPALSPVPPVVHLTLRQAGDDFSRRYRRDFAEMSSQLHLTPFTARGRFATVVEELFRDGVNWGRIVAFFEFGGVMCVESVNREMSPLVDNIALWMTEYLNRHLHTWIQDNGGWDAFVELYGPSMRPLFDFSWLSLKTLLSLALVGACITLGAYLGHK

Compound | Ki (Bcl-2) | Ki (Bcl-xL)
COc1c(CN2O[C@@H](CO)[C@@H]([C@H](C)O)[C@H]2C(=O)N[C@H]2C[C@H]3CC([C@@H]2C)C3(C)C)ccc(Cl)c1-c1cc(C(=O)N[C@@H](CC(C)C)CN(C)C)cc(N(C)C)c1 [Compound 183] | 0.001 to 0.005 µM | 1 to 5 µM
C[C@@H]1[C@@H](NC(=O)[C@@H]2[C@H]([C@H](C)O)[C@H](CO)ON2Cc2cccc(-c3cc(C(=O)N[C@@H](Cc4ccccc4)CN(C)C)cc(N(C)C)c3)c2OCCN2CCOCC2)C[C@H]2C[C@@H]1C2(C)C [Compound 230] | < 0.001 µM | < 1 µM
COc1c(CN2O[C@@H](CO)[C@@H]([C@H](C)O)[C@H]2C(=O)N[C@H]2C[C@H]3C[C@@H]([C@@H]2C)C3(C)C)cccc1-c1cc(C(=O)N(C)[C@@H](Cc2ccccc2)CN(C)C)cc(N(C)C)c1 [Compound 311] | < 0.001 µM | < 1 µM
COc1c(CN2O[C@@H](CO)[C@@H]([C@H](C)O)[C@H]2C(=O)N[C@H]2C[C@H]3C[C@@H]([C@@H]2C)C3(C)C)cccc1-c1cc(C(=O)N[C@@H](Cc2ccccc2)CN(C)C)cc(N2CCOCC2)c1 [Compound 240] | < 0.001 µM | 1 to 5 µM
COc1c(CN2O[C@@H](CO)[C@@H]([C@H](C)O)[C@H]2C(=O)N[C@H]2C[C@H]3C[C@@H]([C@@H]2C)C3(C)C)cc(Cl)cc1-c1cc(C(=O)NCCc2ccccc2)cc(N(C)C)c1 [Compound 321] | > 0.009 µM | 5 to 10 µM
CCOc1c(CN2O[C@@H](CO)[C@@H]([C@H](C)O)[C@H]2C(=O)N[C@H]2C[C@H]3C[C@@H]([C@@H]2C)C3(C)C)cccc1-c1cc(C(=O)N[C@H](Cc2ccccc2)CN(C)C)cc(N(C)C)c1 [Compound 23] | < 0.001 µM | < 1 µM
COc1c(-c2cc(C(=O)N[C@H](CN(C)C)[C@H](O)c3ccccc3)cc(N(C)C)c2)ccc(F)c1CN1O[C@@H](CO)[C@@H]([C@H](C)O)[C@H]1C(=O)N[C@H]1C[C@H]2C[C@@H]([C@@H]1C)C2(C)C [Compound 143] | < 0.001 µM | < 1 µM
COc1c(CN2O[C@@H](CO)[C@@H]([C@H](C)O)[C@H]2C(=O)N[C@H]2C[C@H]3C[C@@H]([C@@H]2C)C3(C)C)cccc1-c1cc(C(=O)N[C@@H](CC(C)C)CN2CCCC2)cc(N(C)C)c1 [Compound 320] | < 0.001 µM | < 1 µM
COc1c(CN2O[C@@H](CO)[C@@H]([C@H](C)O)[C@H]2C(=O)N[C@H]2C[C@H]3C[C@@H]([C@@H]2C)C3(C)C)cccc1-c1cc(C(=O)N[C@@H](CCc2ccccc2)CN(C)C)cc([N+](=O)[O-])c1 [Compound 265] | < 0.001 µM | < 1 µM
COc1c(-c2cc(C(=O)N[C@@H](Cc3ccccc3)CN(C)C)cc(N(C)C)c2)ccc(F)c1CN1O[C@@H](CN)[C@@H]([C@H](C)O)[C@H]1C(=O)N[C@H]1C[C@H]2C[C@@H]([C@@H]1C)C2(C)C [Compound 127] | < 0.001 µM | < 1 µM
COc1c(CN2O[C@@H](CN)[C@@H]([C@H](C)O)[C@H]2C(=O)N[C@H]2C[C@H]3C[C@@H]([C@@H]2C)C3(C)C)cccc1-c1cc(C(=O)N[C@H](CN(C)C)[C@H](O)c2ccccc2)cc(N(C)C)c1 [Compound 272] | < 0.001 µM | 1 to 5 µM
COc1c(CN2O[C@@H](CO)[C@@H]([C@H](C)O)[C@H]2C(=O)N[C@H]2C[C@H]3C[C@@H]([C@@H]2C)C3(C)C)cccc1-c1cc(C(=O)N[C@H](Cc2ccccc2)CN2CCN(C)CC2)cc(N(C)C)c1 [Compound 313] | < 0.001 µM | < 1 µM
CCOc1c(CN2O[C@@H](CO)[C@@H]([C@H](C)O)[C@H]2C(=O)N[C@H]2C[C@H]3C[C@@H]([C@@H]2C)C3(C)C)cccc1-c1cc(C(=O)N[C@@H](CC(C)C)CN(C)C)cc(N(C)C)c1 [Compound 35] | < 0.001 µM | < 1 µM
CCOc1c(CN2O[C@@H](CO)[C@@H]([C@H](C)O)[C@H]2C(=O)N[C@H]2C[C@H]3C[C@@H]([C@@H]2C)C3(C)C)cccc1-c1cc(C(=O)N[C@@H](Cc2cccs2)CN(C)C)cc(N(C)C)c1 [Compound 25] | < 0.001 µM | < 1 µM
COc1c(CN2O[C@@H](CO)[C@@H]([C@H](C)O)[C@H]2C(=O)N[C@H]2C[C@H]3C[C@@H]([C@@H]2C)C3(C)C)cccc1-c1cc(C(=O)N[C@@H](CC(C)C)CN2CCN(C)CC2)cc(N(C)C)c1 [Compound 314] | < 0.001 µM | < 1 µM
COc1c(CN2O[C@@H](CO)[C@@H]([C@H](C)O)[C@H]2C(=O)N[C@H]2C[C@H]3C[C@@H]([C@@H]2C)C3(C)C)cccc1-c1cc(C(=O)N[C@@H](CC(C)C)CN(C)C)cc([N+](=O)[O-])c1 [Compound 263] | < 0.001 µM | < 1 µM
C[C@@H]1[C@@H](NC(=O)[C@@H]2[C@H]([C@H](C)O)[C@H](CN)ON2Cc2cccc(-c3cc(C(=O)NCCN(C)C)cc(N(C)C)c3)c2F)C[C@H]2C[C@@H]1C2(C)C [Compound 53] | 0.001 to 0.005 µM | > 10 µM
COc1c(CN2O[C@@H](CO)[C@@H]([C@H](C)O)[C@H]2C(=O)N[C@H]2C[C@H]3C[C@@H]([C@@H]2C)C3(C)C)cccc1-c1cc(Cl)cc(C(=O)N[C@@H](Cc2ccccc2)CN(C)C)c1 [Compound 255] | < 0.001 µM | < 1 µM
COc1c(CN2O[C@@H](CO)[C@@H]([C@H](C)O)[C@H]2C(=O)N[C@H]2C[C@H]3C[C@@H]([C@@H]2C)C3(C)C)cccc1-c1cc(C(=O)N[C@H](CN(C)C)[C@@H](NS(C)(=O)=O)c2ccccc2)cc(N(C)C)c1 [Compound 144] | < 0.001 µM | < 1 µM
COC(=O)[C@H](Cc1ccccc1)NC(=O)c1cc(-c2cccc(CN3O[C@@H](CN)[C@@H]([C@H](C)O)[C@H]3C(=O)N[C@H]3C[C@H]4C[C@@H]([C@@H]3C)C4(C)C)c2OC)cc(N(C)C)c1 [Compound 65] | < 0.001 µM | > 10 µM
CNC[C@H](Cc1ccccc1)NC(=O)c1cc(-c2cccc(CN3O[C@@H](CO)[C@@H]([C@H](C)O)[C@H]3C(=O)N[C@H]3C[C@H]4C[C@@H]([C@@H]3C)C4(C)C)c2OC)cc(N(C)C)c1 [Compound 165] | < 0.001 µM | < 1 µM

Next, values leading:

Ki (Bcl-2) | Ki (Bcl-xL) | Compound
> 0.009 µM | > 10 µM | CNC(=O)O[C@@H](C)[C@@H]1[C@H](CN)ON(Cc2cccc(-c3cc(C(=O)NC)cc(N(C)C)c3)c2OC)[C@@H]1C(=O)N[C@H]1C[C@H]2C[C@@H]([C@@H]1C)C2(C)C [Compound 93]
< 0.001 µM | < 1 µM | COc1c(CN2O[C@@H](CO)[C@@H]([C@H](C)O)[C@H]2C(=O)N[C@H]2C[C@H]3C[C@@H]([C@@H]2C)C3(C)C)cccc1-c1cc(C(=O)N[C@H](CN(C)C)CC(C)(C)C)cc(N(C)C)c1 [Compound 1]
< 0.001 µM | < 1 µM | COc1c(CN2O[C@@H](CN)[C@@H]([C@H](C)O)[C@H]2C(=O)N[C@H]2C[C@H]3C[C@@H]([C@@H]2C)C3(C)C)cccc1-c1cc(C(=O)N[C@H](CN(C)C)CC(C)(C)C)cc(N(C)C)c1 [Compound 61]
> 0.009 µM | 5 to 10 µM | CNC(=O)c1cc(-c2cccc(CN3O[C@@H](CNC(=O)Nc4ccccc4)[C@@H]([C@H](C)O)[C@H]3C(=O)N[C@H]3C[C@H]4C[C@@H]([C@@H]3C)C4(C)C)c2OC)cc(N(C)C)c1 [Compound 79]
> 0.009 µM | > 10 µM | CNC(=O)c1cc(-c2cccc(CN3O[C@@H](CNC(C)C)[C@@H]([C@H](C)O)[C@H]3C(=O)N[C@H]3C[C@H]4C[C@@H]([C@@H]3C)C4(C)C)c2OC)cc(N(C)C)c1 [Compound 97]
> 0.009 µM | > 10 µM | CNC(=O)c1cc(-c2cccc(CN3O[C@@H](CNCc4ccc(C(=O)O)cc4)[C@@H]([C@H](C)O)[C@H]3C(=O)N[C@H]3C[C@H]4C[C@@H]([C@@H]3C)C4(C)C)c2OC)cc(N(C)C)c1 [Compound 81]
> 0.009 µM | > 10 µM | CNC(=O)c1cc(-c2cccc(CN3O[C@@H](CNCc4ccccn4)[C@@H]([C@H](C)O)[C@H]3C(=O)N[C@H]3C[C@H]4C[C@@H]([C@@H]3C)C4(C)C)c2OC)cc(N(C)C)c1 [Compound 83]
0.005 to 0.009 µM | 5 to 10 µM | CNC(=O)c1cc(-c2cccc(CN3O[C@@H](CNCC4CC4)[C@@H]([C@H](C)O)[C@H]3C(=O)N[C@H]3C[C@H]4C[C@@H]([C@@H]3C)C4(C)C)c2OC)cc(N(C)C)c1 [Compound 96]
0.005 to 0.009 µM | > 10 µM | COc1c(CN2O[C@@H](CN)[C@@H]([C@H](C)O)[C@H]2C(=O)N[C@H]2C[C@H]3C[C@@H]([C@@H]2C)C3(C)C)cccc1-c1cc(C(=O)N(C)C)cc(N(C)C)c1 [Compound 69]
< 0.001 µM | 5 to 10 µM | COc1c(CN2O[C@@H](CN)[C@@H]([C@H](C)O)[C@H]2C(=O)N[C@H]2C[C@H]3C[C@@H]([C@@H]2C)C3(C)C)cccc1-c1cc(C(=O)N[C@@H](Cc2cscn2)C(=O)N(C)C)cc(N(C)C)c1 [Compound 67]
> 0.009 µM | > 10 µM | CNC(=O)c1cc(-c2cccc(CN3O[C@@H](CNCc4ccncc4)[C@@H]([C@H](C)O)[C@H]3C(=O)N[C@H]3C[C@H]4C[C@@H]([C@@H]3C)C4(C)C)c2OC)cc(N(C)C)c1 [Compound 82]
> 0.009 µM | > 10 µM | CNC(=O)c1cc(-c2cccc(CN3O[C@@H](CN(C)C)[C@@H]([C@H](C)O)[C@H]3C(=O)N[C@H]3C[C@H]4C[C@@H]([C@@H]3C)C4(C)C)c2OC)cc(N(C)C)c1 [Compound 99]
0.005 to 0.009 µM | 5 to 10 µM | CNC(=O)c1cc(-c2cccc(CN3O[C@@H](CNCC(C)C)[C@@H]([C@H](C)O)[C@H]3C(=O)N[C@H]3C[C@H]4C[C@@H]([C@@H]3C)C4(C)C)c2OC)cc(N(C)C)c1 [Compound 95]
< 0.001 µM | < 1 µM | COc1c(CN2O[C@@H](CNC(C)=O)[C@@H]([C@H](C)O)[C@H]2C(=O)N[C@H]2C[C@H]3C[C@@H]([C@@H]2C)C3(C)C)cccc1-c1cc(C(=O)N[C@H](CN(C)C)CC(C)(C)C)cc(N(C)C)c1 [Compound 73]
0.005 to 0.009 µM | 1 to 5 µM | CNC(=O)c1cc(-c2cccc(CN3O[C@@H](CNC(C)=O)[C@@H]([C@H](C)O)[C@H]3C(=O)N[C@H]3C[C@H]4C[C@@H]([C@@H]3C)C4(C)C)c2OC)cc(N(C)C)c1 [Compound 77]

Source: patent publication US8178690B2, “Compounds and methods for inhibiting the interaction of BCL proteins with binding partners” (Infinity Pharmaceuticals, Inc., priority 2006, dated 2012)
